Measured values published in patent US20110300110A1, “ENAMINOCARBONYL COMPOUND/BENEFICIAL ORGANISM COMBINATIONS” (BAYER CROPSCIENCE AG, priority 2008, published 2011).

Legend:
Type in all cases: in vivo
adult Orius laevigatus = assay: Residual test with adult Orius laevigatus on bell-pepper leaves
Procedure: Foliar treatment is carried out using compound (I-5) in a concentration of 100 g of active compound per hectare.
Drench treatment is carried out using compound (I-5) in a concentration of 15 mg of active compound per plant.
Foliar treatment with Karate Zeon CS100 as toxic control was carried out in a concentration of 12.5 g of active compound per hectare. The active compound in its respective formulation is brought to the required concentration by dilution with water.
Bell-pepper plants cultivated in a greenhouse are treated with the respective active compound solutions. 1, 8, 16 and 23 days after the application, leaves are plucked from the test plants (5 samples per plot). The individual leaves are then mounted in test cages. 10 adult Orius laevigatus are added to each cage. The test cages are placed under controlled conditions in a climatized chamber. The kill of the insects is determined after 24, 48 and 72 hours of exposure.

[1] = test system: Episyrphus balteatus larvae; assay: Larvae treatment Episyrphus: kill of beneficial species larvae on Savoy cabbage
Procedure: (§1) Foliar treatment is carried out using compound (I-5) in a concentration of 75 g of active compound per hectare.
(§2) Drench treatment is carried out using compound (I-5) in a concentration of 10 mg of active compound per plant.
(§3) Foliar treatment with Karate Zeon CS100 as toxic control was carried out in a concentration of 12.5 g of active compound per hectare.
(§4) Beneficial species: Episyrphus balteatus larvae Pest: Myzus persicae
(§5) Per experiment, 3 repetitions with in each case 2 pot cages with in each case 5 larvae are carried out.
(§6) For the experiment, Savoy cabbage plants are grown in pots having a diameter of 14 cm, placed in a breeding cage and infested thoroughly with Myzus persicae.
(§7) After the spray coating has dried on, a quartz sand layer of a thickness of about 1 cm is applied to the soil in the pot, and the pot cage is put over the plant. In each case 5 Episyrphus larvae are then counted out, and in each case 5 specimen are added to the plants in the pot cage.
(§8) For each plant, at the beginning the Myzus persicae number is estimated at the appropriate points in time and the dead, dying and alive larvae are counted separately. All larvae, i.e. all larvae present on the plant and the surface of the quartz sand base, are counted.

Myzus persicae = assay: Larvae treatment Episyrphus: infestation by Myzus persicae on Savoy cabbage; settings: Episyrphus larvae added
Procedure: as §1, §2, §3, §4, §5, §6, §7, §8

[2] = 5 days after application, drench 10 mg a.i./plant
[3] = 5 days after application, foliar: (I-5) 75 g a.i./ha, Karate Zeon CS100 12.5 g a.i./ha

O=C1C=C(N(Cc2ccc(Cl)nc2)CC(F)F)CO1 [compound (I-5), 4-{[(6-chloropyrid-3-yl)methyl](2,2-difluoroethyl)amino}furan-2(5H)-one]
Activity against adult Orius leavigatus on bell-pepper [% kill calculated according to Schneider-Orelli] (adult Orius laevigatus; leaves plucked 1 day after application, drench 15 mg a.i./plant): 36.3% | Activity against adult Orius leavigatus on bell-pepper [% kill calculated according to Schneider-Orelli] (adult Orius laevigatus; leaves plucked 1 day after application, foliar: (I-5) 100 g a.i./ha, Karate Zeon CS100 12.5 g a.i./ha): 100% | Activity against adult Orius leavigatus on bell-pepper [% kill calculated according to Schneider-Orelli] (adult Orius laevigatus; leaves plucked 8 days after application, drench 15 mg a.i./plant): 86.7% | Activity against adult Orius leavigatus on bell-pepper [% kill calculated according to Schneider-Orelli] (adult Orius laevigatus; leaves plucked 8 days after application, foliar: (I-5) 100 g a.i./ha, Karate Zeon CS100 12.5 g a.i./ha): 98.1% | Activity against adult Orius leavigatus on bell-pepper [% kill calculated according to Schneider-Orelli] (adult Orius laevigatus; leaves plucked 16 days after application, drench 15 mg a.i./plant): 72.3% | Activity against adult Orius leavigatus on bell-pepper [% kill calculated according to Schneider-Orelli] (adult Orius laevigatus; leaves plucked 16 days after application, foliar: (I-5) 100 g a.i./ha, Karate Zeon CS100 12.5 g a.i./ha): 100% | Activity against adult Orius leavigatus on bell-pepper [% kill calculated according to Schneider-Orelli] (adult Orius laevigatus; leaves plucked 23 days after application, drench 15 mg a.i./plant): 92.1% | Activity against adult Orius leavigatus on bell-pepper [% kill calculated according to Schneider-Orelli] (adult Orius laevigatus; leaves plucked 23 days after application, foliar: (I-5) 100 g a.i./ha, Karate Zeon CS100 12.5 g a.i./ha): 100% | kill of Episyrphus balteatus larvae [% Abbott] ([1]; 0 days after application, drench 10 mg a.i./plant): 0% | kill of Episyrphus balteatus larvae [% Abbott] ([1]; 0 days after application, foliar: (I-5) 75 g a.i./ha, Karate Zeon CS100 12.5 g a.i./ha): 0% | kill of Episyrphus balteatus larvae [% Abbott] ([1]; 1 day after application, drench 10 mg a.i./plant): 10.3% | kill of Episyrphus balteatus larvae [% Abbott] ([1]; 1 day after application, foliar: (I-5) 75 g a.i./ha, Karate Zeon CS100 12.5 g a.i./ha): 6.1% | kill of Episyrphus balteatus larvae [% Abbott] ([1]; 3 days after application, drench 10 mg a.i./plant): 10.3% | kill of Episyrphus balteatus larvae [% Abbott] ([1]; 3 days after application, foliar: (I-5) 75 g a.i./ha, Karate Zeon CS100 12.5 g a.i./ha): 9% | kill of Episyrphus balteatus larvae [% Abbott] [1, 2]: 0% | kill of Episyrphus balteatus larvae [% Abbott] [1, 3]: 0% | Infestation by Myzus persicae (number per plant) (Myzus persicae; [2]): 23 number per plant | Infestation by Myzus persicae (number per plant) (Myzus persicae; [3]): 0 number per plant | Infestation by Myzus persicae (number per plant) (Myzus persicae; prior to application (baseline), drench 10 mg a.i./plant): 394 number per plant | Infestation by Myzus persicae (number per plant) (Myzus persicae; prior to application (baseline), foliar: (I-5) 75 g a.i./ha, Karate Zeon CS100 12.5 g a.i./ha): 375 number per plant
